Columns and labels:
Test in all cases: biotin probe pull-down on streptavidin beads, Western blot
Format in all cases: biochemical
Settings in all cases: lysate of transfected SH-SY5Y cells; labelled compound
[1] = target: T1, (Homo sapiens, UniProt Q8N201, R1404A)
T1 construct: gene INTS1; full-length cDNA (synthesized) in pcDNA3.1(+), C-terminal 3xFLAG, transiently expressed in SH-SY5Y cells, cell lysate

flag-tagged INTS1 = target: T2, flag-tagged INTS1 (Homo sapiens, UniProt Q8N201, R1404K)
T2 construct: full-length cDNA (synthesized) in pcDNA3.1(+), C-terminal 3xFLAG, transiently expressed in SH-SY5Y cells, cell lysate
T2 sequence (Q8N201 whole entry R1404K): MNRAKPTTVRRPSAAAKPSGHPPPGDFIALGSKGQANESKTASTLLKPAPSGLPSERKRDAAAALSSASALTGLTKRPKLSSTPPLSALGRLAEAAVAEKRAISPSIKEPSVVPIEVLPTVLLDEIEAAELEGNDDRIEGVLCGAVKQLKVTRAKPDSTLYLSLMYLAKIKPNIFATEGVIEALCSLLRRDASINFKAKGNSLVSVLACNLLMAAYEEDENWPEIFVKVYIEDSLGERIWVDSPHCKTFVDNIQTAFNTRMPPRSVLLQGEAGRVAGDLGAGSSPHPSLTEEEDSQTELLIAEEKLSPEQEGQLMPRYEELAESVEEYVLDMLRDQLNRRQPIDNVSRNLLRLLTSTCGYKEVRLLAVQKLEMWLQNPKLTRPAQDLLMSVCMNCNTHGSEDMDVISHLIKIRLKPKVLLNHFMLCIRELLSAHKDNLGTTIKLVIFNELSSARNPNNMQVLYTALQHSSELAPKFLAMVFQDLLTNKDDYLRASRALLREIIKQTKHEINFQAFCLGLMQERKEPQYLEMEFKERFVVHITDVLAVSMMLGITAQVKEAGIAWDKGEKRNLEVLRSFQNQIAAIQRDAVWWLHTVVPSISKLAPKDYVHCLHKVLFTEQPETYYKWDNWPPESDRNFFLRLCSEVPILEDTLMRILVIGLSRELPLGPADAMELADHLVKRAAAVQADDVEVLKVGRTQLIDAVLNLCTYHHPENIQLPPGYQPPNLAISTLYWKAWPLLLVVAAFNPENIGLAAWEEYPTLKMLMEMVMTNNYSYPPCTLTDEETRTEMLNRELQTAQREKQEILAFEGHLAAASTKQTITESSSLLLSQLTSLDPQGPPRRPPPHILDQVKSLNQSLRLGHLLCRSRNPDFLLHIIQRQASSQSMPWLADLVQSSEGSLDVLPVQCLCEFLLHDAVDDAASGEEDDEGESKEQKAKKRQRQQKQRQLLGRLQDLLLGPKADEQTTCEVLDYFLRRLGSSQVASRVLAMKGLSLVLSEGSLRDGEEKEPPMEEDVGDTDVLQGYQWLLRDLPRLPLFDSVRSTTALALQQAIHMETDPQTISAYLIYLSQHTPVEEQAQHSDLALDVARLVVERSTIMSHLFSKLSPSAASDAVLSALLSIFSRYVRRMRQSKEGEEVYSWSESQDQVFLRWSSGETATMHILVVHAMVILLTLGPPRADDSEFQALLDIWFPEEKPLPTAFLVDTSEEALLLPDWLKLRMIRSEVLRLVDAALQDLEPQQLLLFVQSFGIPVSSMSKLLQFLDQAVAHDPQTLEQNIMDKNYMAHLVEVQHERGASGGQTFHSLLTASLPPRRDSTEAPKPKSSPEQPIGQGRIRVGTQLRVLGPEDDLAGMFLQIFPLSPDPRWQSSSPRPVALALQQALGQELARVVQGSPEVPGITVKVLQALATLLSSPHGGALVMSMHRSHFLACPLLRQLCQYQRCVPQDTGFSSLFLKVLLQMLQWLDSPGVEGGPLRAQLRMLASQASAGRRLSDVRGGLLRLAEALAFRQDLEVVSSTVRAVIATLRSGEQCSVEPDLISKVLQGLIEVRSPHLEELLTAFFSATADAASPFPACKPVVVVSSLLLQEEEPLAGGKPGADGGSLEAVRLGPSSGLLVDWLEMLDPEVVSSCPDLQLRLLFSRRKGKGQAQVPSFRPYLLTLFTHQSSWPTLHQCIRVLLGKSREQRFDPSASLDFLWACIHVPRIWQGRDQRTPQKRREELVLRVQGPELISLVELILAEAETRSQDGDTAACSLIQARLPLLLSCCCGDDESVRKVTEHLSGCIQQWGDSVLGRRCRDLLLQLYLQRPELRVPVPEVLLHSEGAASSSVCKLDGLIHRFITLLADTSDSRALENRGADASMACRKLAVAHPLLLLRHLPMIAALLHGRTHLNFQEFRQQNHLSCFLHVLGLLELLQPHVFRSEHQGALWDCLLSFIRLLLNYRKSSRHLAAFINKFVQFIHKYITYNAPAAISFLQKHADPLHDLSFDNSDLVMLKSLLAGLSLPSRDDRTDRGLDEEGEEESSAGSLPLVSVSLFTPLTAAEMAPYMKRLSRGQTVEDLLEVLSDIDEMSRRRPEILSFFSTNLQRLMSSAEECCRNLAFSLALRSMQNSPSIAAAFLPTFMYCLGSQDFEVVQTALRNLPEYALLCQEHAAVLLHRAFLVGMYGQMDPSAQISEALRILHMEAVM

[2] = target: T3, (Homo sapiens, UniProt Q8N201, R1404L)
T3 construct: gene INTS1; full-length cDNA (synthesized) in pcDNA3.1(+), C-terminal 3xFLAG, transiently expressed in SH-SY5Y cells, cell lysate
T3 sequence (Q8N201 whole entry R1404L): as the sequence (Q8N201 whole entry R1404K) above, with K1404L counted along it

[3] = target: T4, flag-tagged wild type INTS1 (INTS1-WT-flag) (Homo sapiens, UniProt Q8N201)
T4 construct: full-length cDNA (synthesized) in pcDNA3.1(+), C-terminal 3xFLAG, transiently expressed in SH-SY5Y cells, cell lysate
T4 sequence (Q8N201 whole entry): as the sequence (Q8N201 whole entry R1404K) above, with K1404R counted along it

T1 sequence (Q8N201 whole entry R1404A): as the sequence (Q8N201 whole entry R1404K) above, with K1404A counted along it

`N#Cc1c(NC(=O)CN2CCN(C(=O)CCCC[C@H]3SC[C@@H]4NC(=O)N[C@@H]43)CC2)sc2c1CCCC2` [CN-0928-biotin, N-(3-cyano-4,5,6,7-tetrahydrobenzo[b]thiophen-2-yl)-2-(4-(5-((3aS,4R,6aR)-2-oxohexahydro-1H-thieno[3,4-d]imidazol-4-yl)pentanoyl)piperazin-1-yl)acetamide] was tested, and the pulldown [1] was “(R1404A, R1404L, and R1404K) prevented the binding of CN-0928-biotin to flag-labeled INTS1”, the pulldown (flag-tagged INTS1) was “(R1404A, R1404L, and R1404K) prevented the binding of CN-0928-biotin to flag-labeled INTS1” and the pulldown [2] was “(R1404A, R1404L, and R1404K) prevented the binding of CN-0928-biotin to flag-labeled INTS1”. For the same compound, the “biotin probe pull-down on streptavidin beads, Western blot” value [3] was “CN-0928-biotin pulldown of flag-tagged wild type (INTS1-WT-flag)”.

From PMC12658114, “Pharmacologic inhibition of PCBP2 biomolecular condensates relieves Alzheimer’s disease” (Nature Communications, 2025)
